We go through three compounds from patent publication US20230149603A1, “DRUG-RELEASING POLYMER COMPOSITION AND DEVICE” (Novaflux Inc., priority 2021, published 2023).

The nature of data set [1]: Thermogravimetric analysis of the APIs. The format is physicochemical. The following applies: ramp heated to 140° C. and held for 10 minutes. The procedure: Thermogravimetric analysis was performed on the APIs used in compositions. Each drug was ramp heated to 140° C. and held at that temperature for 10 minutes. For all compositions, time spent melt-mixing is 8-10 minutes. The decomposition of the API in that time was less than 0.5% for each drug, meaning that the API are stable during processing. For Rifampin, the change in mass was 0.292%; for Minocycline HCl the change in mass was 0.421%; and for minocycline Free Base the change in mass was 0.137%.

In the next data set the test system is S. Aureus. The conditions noted are these: averaged between the high and low of the MIC; cited from earlier work.
The next data set relates to E. Coli. The following applies: averaged between the high and low of the MIC; cited from earlier work.
For data set [2] the following is noted: cited from earlier work.
Another data set has as its system A. Baumanii. The conditions noted are these: averaged between the high and low of the MIC; cited from earlier work.
The test system of another data set is S. Epidermidis. The conditions noted are these: averaged between the high and low of the MIC; cited from earlier work.
The nature of data set [3]: Stability (discoloration) of the two forms of minocycline.

Molecules are shown by their SMILES. Where a name gives a salt, the structure may show the parent alone.

Consider `CN(C)c1ccc(O)c2c1C[C@H]1C[C@H]3[C@H](N(C)C)C(O)=C(C(N)=O)C(=O)[C@@]3(O)C(O)=C1C2=O` [Minocycline HCl], for which the “change in mass (decomposition of the API)” value (shortened to “change in mass”) in data set [1] is 0.421%.

As for `CO[C@H]1/C=C/O[C@@]2(C)Oc3c(C)c(O)c4c(O)c(c(/C=N/N5CCN(C)CC5)c(O)c4c3C2=O)NC(=O)/C(C)=C\C=C\[C@H](C)[C@H](O)[C@@H](C)[C@@H](O)[C@@H](C)[C@H](OC(C)=O)[C@@H]1C` [Rifampicin], the MIC in the data set with S. Aureus is on record as 0.0095 micrograms per ml; in the data set with E. Coli, 10 micrograms per ml; in the data set with A. Baumanii it was 6 micrograms per ml; in the data set with S. Epidermidis, 0.1 micrograms per ml. The solubility in water result in data set [2] was “low solubility in water”. For the same compound, in data set [1], the “change in mass” value is on record as 0.292%.

Take `CN(C)c1ccc(O)c2c1C[C@H]1C[C@H]3[C@H](N(C)C)C(=O)C(C(N)=O)=C(O)[C@@]3(O)C(=O)C1=C2O` [minocycline Free Base]: the discoloration process entry in data set [3] (dry powder form exposed to air) is listed as “not observed at all”. In data set [3] (stored in distilled water and formulated in compositions), the “stability (discoloration) over time” value was “the drug oxidizes with the passage of time”. In data set [1], the “change in mass” value is listed as 0.137%.
